This note sets out measurements from patent publication EP0639971B1, “THERAPEUTIC COMBINATIONS” (priority 1992, dated 1993).

Common to all, as to type: cell-based
Assay [1] deals with zidovudine-resistant HIV strain (HIVRTMC) with M184 to V mutation. Nature of the assay: Antiviral sensitivity (IC50) of zidovudine-resistant HIV strain with M184 to V mutation introduced. The settings on record: Human immunodeficiency virus 1.
Assay [2] concerns HIV-1 population containing four mutations in the HIV-RT which confer zidovudine resistance. Kind of assay: Passage of zidovudine-resistant HIV-1 in cell culture with increasing concentrations of Chloro-TIBO; antiviral sensitivity (IC50).
Assay [3] concerns zidovudine-resistant HIV strain (HIVRTMC). Kind of assay: Antiviral sensitivity (IC50) of zidovudine-resistant HIV strain. The settings on record: Human immunodeficiency virus 1; HIVRTMC before introduction of mutation.
The test system of assay [4] is zidovudine-resistant virus with Y181 to C, together with M184 to V. Kind of assay: Antiviral sensitivity (IC50) of zidovudine-resistant HIV strain with Y181 to C and M184 to V mutations introduced.
The next assay concerns HIV. Nature of the assay: In vitro passage experiments: acquisition of resistance to oxathiolane nucleosides.

For orientation: IC50 means the midpoint of a concentration-inhibition curve. A high value points to weaker potency. As to `Cc1cn([C@H]2C[C@H](N=[N+]=[N-])[C@@H](CO)O2)c(=O)[nH]c1=O` [zidovudine, 3'-azido-3'-deoxythymidine], the IC50 was 0.17 µM in assay [1]; under 0.1 µM in assay [2] (Human immunodeficiency virus 1, after five passages with Chloro-TIBO); about 2 µM in assay [2] (Human immunodeficiency virus 1, before passage with Chloro-TIBO); 1.26 µM in assay [3]; 0.04 µM in assay [4] (Human immunodeficiency virus 1). The “increase of sensitivity of the virus population to zidovudine” value in assay [2] (after five passages with increasing concentrations of Chloro-TIBO) is listed as “about twenty fold”. Also, in assay [4], the “sensitivity / resistance of the resulting mutant virus strain” value is “completely sensitive”.
As to `Nc1ccn([C@H]2CS[C@@H](CO)O2)c(=O)n1` [3TC, (-)-2',3'-dideoxy-3'-thiacytidine], the “acquisition of resistance by HIV” value in the assay on HIV was “rapid resistance”.
With `Nc1nc(=O)n([C@@H]2CS[C@H](CO)O2)cc1F` [FTC, (-)-2'3'-dideoxy-5-fluoro-3'-thiacytidine], the figures for the IC50 in assay [1] and in assay [3] were over 500 µM and 0.64 µM, respectively. Besides, in the assay with HIV, the “acquisition of resistance by HIV” value is reported as “rapid resistance”.
